Holding throughout (assay): Fungicidal spot assay on compound-free YPD plates
Holding throughout (assay type): cell-based

In one experiment the test system is C. glabrata. How it is done: Fig 4 4456dh inhibits the growth of Candida and Cryptococcus species. […] 4456dh was administered at the concentrations indicated. Cultures were grown in YPD at the listed temperatures for 48 hours for Candida species and 72 hours for Cryptococcus species. Experimental temperatures reflect the temperatures at which the fungi experience heat stress. Left: relative growth of treated samples was calculated by averaging technical triplicates and normalizing the OD600 of each treated well to the average OD600 of the untreated WT controls, after the absorbance due to the compound was subtracted. The MIC80 values, calculated based on the OD600 values, are indicated in the white text on each heat map. […]
124 technical replicates. Growth, as determined by a reading of absorbance at 600 nm, was
125 normalized to untreated controls and was corrected for the absorbance of 4456dh in the YPD […]
(§1) 129 overnight cultures was quantified by measuring the OD600 and corrected for the background
130 absorbance of the medium. Antifungal potency for 4456dh was assessed by minimum inhibitory […]
(§2) 137 replicates. Growth, as determined by a reading of absorbance at 600 nm, was normalized to
(§3) 138 untreated controls and was corrected for the absorbance of 4456dh in the YPD medium. […]
(§4) 139 minimum inhibitory concentration causing 80% growth reduction, or MIC80, was determined based […]

A further experiment has as its system C. deneoformans. How it is done:
(§5) Fig 4 4456dh inhibits the growth of Candida and Cryptococcus species. Two-fold dose response assays were performed against (A) C. albicans at 42°C and C. auris at 39°C, (B) C. glabrata at 42°C, and (C) C. neoformans, C. deneoformans, and C. gattii at 37°C. 4456dh was administered at the concentrations indicated. Cultures were grown in YPD at the listed temperatures for 48 hours for Candida species and 72 hours for Cryptococcus species. Experimental temperatures reflect the temperatures at which the fungi experience heat stress. Left: relative growth of treated samples was calculated by averaging technical triplicates and normalizing the OD600 of each treated well to the average OD600 of the untreated WT controls, after the absorbance due to the compound was subtracted. The MIC80 values, calculated based on the OD600 values, are indicated in the white text on each heat map. Right: representative spot assays show the ability of cells to grow after exposure to 4456dh and indicate fungicidal activity of 4456dh. TEXT PRINTED IN THE PICTURE: (A) 4456dh: C. albicans 42 °C: 13 mM; C. auris 39 °C: 7 mM | (B) 4456dh: C. glabrata 42 °C: 7.8 μM | (C) 4456dh: C. neoformans 37 °C: 7 mM; C. deneoformans 37 °C: 3 mM; C. gattii 37 °C: 7 mM DOUBTS OF THE COPYIST ABOUT THIS PICTURE: 4456dh, all panels: the picture prints no measure name with the white values on the heat maps, so each value is given only with its organism and temperature
(§6) We next tested the activity of 4456dh on Cryptococcus species at 37°C.
(§7) 123 hours. […]
(§8) 126 medium. Growth was plotted as a heat map using Excel.
(§9) 127 Wild-t y pe C. neoformans strains H99, wild-type C. deneoformans JEC21 and wild- t y pe C. gattii
(§10) 128 R265 were cultured overnight in YPD (yeast-peptone- dextrose) medium at 30 °C. Growth of the
as §1
(§11) 130 absorbance of the medium. Antifungal potency for 4456dh was assessed by minimum inhibitory
(§12) 131 concentration (MIC) dose-response assays performed under standard Clinical and Lab Standards
(§13) 132 Institute (CLSI) conditions. A volume of 125 µL from each cell suspension was dispensed into the
(§14) 133 wells of 96-well flat-bottom microtiter plates (Corning). An additional 25 µL of 4456dh from a series
(§15) 134 of dilutions from the 157 mM stock solution prepared in water was added to each well. Following […]
as §2, §3, §4
(§16) 157 Optical density (OD600) was determined with an Infinite PRO plate reader ( Tecan). […]

Another experiment deals with C. gattii. To be noted: 37°C exposure. How it is done:
as §5, §6, §7, §8, §9, §10, §1, §11, §12, §13, §14, §15, §2, §3, §4, §16

The test system of another experiment is C. neoformans. As to conditions: 37°C exposure. How it is done:
as §5, §6, §7, §8, §9, §10, §1, §11, §12, §13, §14, §15, §2, §3, §4, §16

For the compound `Cn1cc(-c2csc(NC(=O)Cc3ccccn3)n2)cn1` [Compound 4456dh], the fungicidal activity entry was “no MIC or fungicidal activity was detected” in the experiment on C. glabrata (30°C exposure); “displayed fungicidal activity” in the experiment on C. deneoformans (30°C, 13 mM 4456dh); “Fungicidal activity of 4456dh was also detected” with C. deneoformans (37°C exposure); “Fungicidal activity of 4456dh was also detected” in the experiment with C. gattii; “Fungicidal activity of 4456dh was also detected” in the experiment on C. neoformans. In addition, the “concentration from which fungicidal activity starts” value in the experiment on C. glabrata (42°C exposure) was “approximately 7.8 µM”.

The record behind these values is publication PMC12505902, “Inhibitors of trehalose-6-phosphate synthase activity in fungal pathogens compromise thermal tolerance pathways” (mBio, 2025).
